Measured values reported in US20020082268A1, “Therapeutic compounds for the treatment of asthma and allergy, and methods of use thereof” (priority 2000, published 2002).

What was measured:
[1] = target: T1, Histamine H1-receptor (peripheral) (Cavia porcellus, UniProt P31389); experiment: Histamine H1-receptor (peripheral) binding assay, [3H]pyrilamine, guinea-pig lung membranes; details: 1 nM [3H]pyrilamine
T1 construct: Aliquots of guinea-pig lung membrane preparations corresponding to 800 μg protein are incubated; from tissue; host or cells: guinea-pig lung membranes
Procedure: Histamine H1-receptor (peripheral) binding assays were performed according to the literature procedure (ref: Dini, S., et al, Agents and Actions, 1991, 33:181-184). Aliquots of guinea-pig lung membrane preparations corresponding to 800 μg protein are incubated for 15 min at 22° C. in 500 μl of 50 mM Na2HPO4/KH2PO4 buffer (pH 7.5) containing 1 nM [^3H]pyrilamine and increasing concentrations of the competing drugs. Nonspecific binding is determined in the presence of 100 μM triprolidine. After incubation, the samples are filtered rapidly under vacuum through glass fiber filters (GF/B, Whatman) and rinsed several times with ice-cold 50 mM Na2HPO4/KH2PO4 using a cell harvester (Brandel). Bound radioactivity is measured with a scintillation counter (LS 6000, Beckman) using a liquid scintillation cocktail (Formula 989, Packard).The reference compound for this assay is pyrilamine.
The results are expressed as percent of control specific binding and as a percent inhibition of control specific binding obtained in the presence of the tested compounds. IC50 values (concentration causing a half-maximal inhibition of control activity) and Hill coefficients (nH) are determined by non-linear regression analysis of the concentration-response curves. These parameters are obtained by Hill equation curve fitting.

[2] = system: human differentiated HL-60 cells; experiment: LTB4 secretion assay in differentiated HL-60 cells (A23187, EIA); format: cell-based; details: 0.5 h, A23187 5 uM, 37 C, 30 min, read-out: Inhibition of LTB4 secretion: IC50
Procedure: The assays were performed using human differentiated HL-60 cells using NDGA as reference compound following the literature procedure (Bennett, C. F. et al, Biochem. J., 1993, 289: 33-39). Substrate A23187 (5 uM) was incubated along with test compound in HL-60 cells at 37 C for 30 min. Reaction product LTB4 was detected by enzymeimmuno assays (EIA) using commercially available kits and a microplate reader.

5-LO = target: T2, 5-LO (UniProt P09917); experiment: 5-LO enzyme assay (RIA quantitation of 5-HETE); format: biochemical; details: Procedure A (RBL-1 cells) or B (HL-60 cells), not given; read-out: Inhibition of 5-LO: IC50
T2 sequence (P09917 1-674): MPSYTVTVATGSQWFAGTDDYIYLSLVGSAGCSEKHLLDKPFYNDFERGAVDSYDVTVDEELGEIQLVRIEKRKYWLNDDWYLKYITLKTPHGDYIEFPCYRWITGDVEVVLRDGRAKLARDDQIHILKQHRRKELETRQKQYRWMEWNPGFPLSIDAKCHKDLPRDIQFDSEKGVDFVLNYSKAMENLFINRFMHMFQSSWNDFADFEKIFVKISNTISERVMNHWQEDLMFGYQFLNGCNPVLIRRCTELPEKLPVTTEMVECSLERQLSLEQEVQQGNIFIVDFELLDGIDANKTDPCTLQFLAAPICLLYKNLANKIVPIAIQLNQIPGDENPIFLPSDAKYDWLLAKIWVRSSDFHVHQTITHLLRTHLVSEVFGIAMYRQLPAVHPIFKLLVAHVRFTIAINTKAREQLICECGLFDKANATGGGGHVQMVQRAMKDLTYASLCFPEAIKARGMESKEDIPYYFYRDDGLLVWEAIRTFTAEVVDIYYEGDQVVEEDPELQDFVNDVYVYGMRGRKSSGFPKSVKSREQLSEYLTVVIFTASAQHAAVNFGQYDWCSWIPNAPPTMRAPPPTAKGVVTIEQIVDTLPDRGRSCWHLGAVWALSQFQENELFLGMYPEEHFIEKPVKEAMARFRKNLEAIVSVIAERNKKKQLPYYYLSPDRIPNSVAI
Procedure: 5-LO enzyme assays (radio-immuno assays (RIA)) were performed according to literature procedures (ref: (a) Egan, R. W., and Gale, P. H., J. Biol. Chem. 1985, 260:11554-11559; (b) Shimizu, T., Rdamark, O., and Samuelsson, B. Proc. Natl. Acad. Sci. USA, 1984, 81:689-693); (c) Coffey, M. et al., J. Biol. Chem. 1992, 267: 570-576) using commercially available kits or reagents.
Tissue/cell sources: Rat basophilic leukemia cells (RBL-1);
Substrate: Arachidonic acid (AA) at 14 μM;
Reaction: AA→5-HPETE→5-HETE, incubation at 25° C. for 8 min;
Method: RIA quantitation of 5-HETE, reference compound NGDA (nordihydroquaiaretic acid).
Tissue/cell sources: Human differentiated HL-60 cells;
Substrate: Arachidonic acid (AA) at 0.4 μM;
Reaction: AA→5-HPETE→5-HETE, incubation at 37° C. for 10 min;
The results are expressed as percent of control activity and as a percent inhibition of control activity obtained in the presence of the tested compounds.
IC50 values (concentration causing a half-maximal inhibition of control activity) and Hill coefficients (nH) are determined by non-linear regression analysis of the concentration-response curves. These parameters are obtained by Hill equation curve fitting.

T1 sequence (P31389 whole entry): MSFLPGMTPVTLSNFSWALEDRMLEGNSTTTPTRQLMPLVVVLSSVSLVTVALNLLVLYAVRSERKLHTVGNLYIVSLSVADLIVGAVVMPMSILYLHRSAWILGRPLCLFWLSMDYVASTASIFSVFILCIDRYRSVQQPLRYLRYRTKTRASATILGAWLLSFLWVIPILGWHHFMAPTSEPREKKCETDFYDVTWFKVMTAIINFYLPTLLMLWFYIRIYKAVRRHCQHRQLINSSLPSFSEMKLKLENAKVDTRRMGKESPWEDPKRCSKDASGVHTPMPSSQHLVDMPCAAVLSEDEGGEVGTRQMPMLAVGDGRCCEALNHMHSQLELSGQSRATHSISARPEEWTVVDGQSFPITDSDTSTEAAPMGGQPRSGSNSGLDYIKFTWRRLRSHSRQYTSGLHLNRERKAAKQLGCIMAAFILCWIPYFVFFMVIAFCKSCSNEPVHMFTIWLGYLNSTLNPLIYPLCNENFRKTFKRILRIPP

O=c1c2cc(F)ccc2nc(N2CCC(Nc3nc4ccccc4n3Cc3ccc(F)cc3)CC2)n1O [Entry 15]
IC50 [1]: < 0.1 µM
IC50 [2]: < 10 µM
IC50 (5-LO): < 1 µM

Cc1cccc2c(=O)n(O)c(CN3CCC(=C4c5ccc(Cl)cc5CCc5cccnc54)CC3)nc12 [Entry 4]
IC50 [1]: < 10 µM
IC50 (5-LO): < 10 µM

O=C(O)c1ccc2nc(N3CCC(Nc4nc5ccccc5n4Cc4ccc(F)cc4)CC3)n(O)c(=O)c2c1 [Entry 10]
IC50 [1]: < 1 µM
IC50 (5-LO): > 10 µM

O=c1c2ccccc2nc(N2CCN(C(c3ccccc3)c3ccc(Cl)cc3)CC2)n1O (centres unmarked) [Entry 13]
IC50 [1]: < 10 µM
IC50 [2]: < 10 µM

O=C(O)c1ccc2nc(CN3CCC(Nc4nc5ccccc5n4Cc4ccc(F)cc4)CC3)n(O)c(=O)c2c1 [Entry 9]
IC50 [1]: < 0.1 µM
IC50 (5-LO): > 10 µM

O=c1c2cc(O)ccc2nc(CN2CCC(Nc3nc4ccccc4n3Cc3ccc(F)cc3)CC2)n1O [Entry 8]
IC50 [1]: < 0.1 µM
IC50 (5-LO): < 10 µM

COc1cc2nc(N3CCC(Nc4nc5ccccc5n4Cc4ccc(F)cc4)CC3)n(O)c(=O)c2cc1OC [Entry 21]
IC50 [1]: < 1 µM
IC50 [2]: < 10 µM

O=c1c2c(Cl)cccc2nc(N2CCC(Nc3nc4ccccc4n3Cc3ccc(F)cc3)CC2)n1O [Entry 22]
IC50 [1]: < 1 µM
IC50 [2]: < 1 µM

O=c1c2cc(F)ccc2nc(CN2CCC(=C3c4ccc(Cl)cc4CCc4cccnc43)CC2)n1O [Entry 5]
IC50 [1]: < 10 µM
IC50 (5-LO): < 10 µM

O=c1c2cc(F)c(F)cc2nc(CN2CCC(Nc3nc4ccccc4n3Cc3ccc(F)cc3)CC2)n1O [Entry 6]
IC50 [1]: < 1 µM
IC50 (5-LO): < 10 µM

O=c1c2ccc(F)cc2nc(N2CCC(Nc3nc4ccccc4n3Cc3ccc(F)cc3)CC2)n1O [Entry 17]
IC50 [1]: < 1 µM
IC50 [2]: < 10 µM

O=c1c2cc(Br)ccc2nc(N2CCC(Nc3nc4ccccc4n3Cc3ccc(F)cc3)CC2)n1O [Entry 14]
IC50 [1]: < 1 µM
IC50 [2]: < 10 µM
IC50 (5-LO): < 10 µM

O=c1c2cc([N+](=O)[O-])ccc2nc(N2CCC(Nc3nc4ccccc4n3Cc3ccc(F)cc3)CC2)n1O [Entry 24]
IC50 [1]: < 1 µM
IC50 [2]: > 10 µM

O=C(O)c1ccc2c(=O)n(O)c(CN3CCC(Nc4nc5ccccc5n4Cc4ccc(F)cc4)CC3)nc2c1 [Entry 2]
IC50 [1]: < 1 µM
IC50 (5-LO): > 10 µM

O=C(O)c1ccc2c(=O)n(O)c(CN3CCC(=C4c5ccc(Cl)cc5CCc5cccnc54)CC3)nc2c1 [Entry 3]
IC50 [1]: < 1 µM
IC50 (5-LO): < 10 µM

COc1ccc2nc(N3CCC(Nc4nc5ccccc5n4Cc4ccc(F)cc4)CC3)n(O)c(=O)c2c1 [Entry 16]
IC50 [1]: < 1 µM
IC50 [2]: < 10 µM
IC50 (5-LO): < 10 µM

Cc1cccc2nc(N3CCC(Nc4nc5ccccc5n4Cc4ccc(F)cc4)CC3)n(O)c(=O)c12 [Entry 23]
IC50 [1]: < 1 µM
IC50 [2]: < 10 µM

O=c1c2ccccc2nc(CN2CCC(Nc3nc4ccccc4n3Cc3ccc(F)cc3)CC2)n1O [Entry 1]
IC50 [1]: < 1 µM
IC50 (5-LO): < 1 µM

O=c1c2cc(Cl)ccc2nc(N2CCC(Nc3nc4ccccc4n3Cc3ccc(F)cc3)CC2)n1O [Entry 19]
IC50 [1]: < 1 µM
IC50 [2]: < 10 µM
IC50 (5-LO): < 1 µM

O=c1c2ccc(Cl)cc2nc(N2CCC(Nc3nc4ccccc4n3Cc3ccc(F)cc3)CC2)n1O [Entry 18]
IC50 [1]: < 1 µM
IC50 [2]: < 10 µM

COc1cccc2c(=O)n(O)c(N3CCC(Nc4nc5ccccc5n4Cc4ccc(F)cc4)CC3)nc12 [Entry 20]
IC50 [1]: < 1 µM
IC50 [2]: > 10 µM

COc1ccc2nc(CN3CCC(Nc4nc5ccccc5n4Cc4ccc(F)cc4)CC3)n(O)c(=O)c2c1 [Entry 7]
IC50 [1]: < 1 µM
IC50 (5-LO): < 10 µM

O=c1c2ccccc2nc(N2CCC(Nc3nc4ccccc4n3Cc3ccc(F)cc3)CC2)n1O [Entry 12]
IC50 [1]: < 1 µM
IC50 [2]: < 10 µM
IC50 (5-LO): < 10 µM

O=C(O)c1ccc2nc(NC3CCN(c4nc5ccccc5n4Cc4ccc(F)cc4)CC3)n(O)c(=O)c2c1 [Entry 11]
IC50 [1]: < 10 µM
IC50 (5-LO): > 10 µM
